Data taken from US6703362B1, “Random peptides that bind to gastro-intestinal tract (GIT) transport receptors and related methods” (Cytogen Corporation, priority 1997, dated 2004).
Each block holds one compound with its values, some of them ahead of it. Square brackets hold non-standard residues; d marks the D form. Peptide text beside a SMILES is read from it. * marks the point of attachment. Dansyl = CN(C)c1cccc2c(S(=O)(=O)*)cccc12

Tests used:
[1] = Peptide stability in simulated intestinal fluid (SIF); assay type: in vitro ADME
Method: The relative stability for ZElanO3l, ZElanO53 and ZElan054 was determined in simulated intestinal fluid (SIF) SIF was made by dissolving 100 mg of pancreatin (Sigma cat#P-1625, lot# 122H0812)in 8.4 ml of phosphate stock solution, adjusting the pH to 7.5 with 0.2N NaOH and adjusting the volume to 10 ml with water.
Peptide (3.25 mg) was dissolved in 3.25 ml of 10,000 fold diluted SIF solution at 37° C. Aliquots (0.7 ml) of the digestion solution were then withdrawn at <1 min, 1 h, 3 h, and 21 h or 24 h. The samples were quickly passed through a syringe filter (Millipore Millex-GV 0.22 μm, part# SLGV025LS, lot# H2BM95250) and 300 μL of the filtered solution was immediately injected onto a Hewlett-Packard HPLC system equipped with a C-8 column (Applied Biosystems column and guard column: column-p/n 0711-0023 Spheri-5 ODS 5 μm, 220×4.6 mm). The products were eluted at 1.5 ml/min using an acetonitrile-water gradient. The major fluorescent peaks were collected, lyopholized and identified by MS analysis.

[2] = tested on: P100 fractions harvested from Caco-2 cells; experiment: Binding of dansylated peptides to P100 fractions and peptide/particle correlation
Method: Caco-2 cell membrane (P100) and cytosolic (S100) fractions were prepared using a modification of the method described in Kinsella, B. T., O'Mahony, D. J. and G. A. FitzGerald, 1994, J. Biol. Chem. 269(47): 29914-29919. Confluent Caco-2 cell monolayers (grown in 75 cm^2 flasks for up to 1 week at 37° C. and 5% CO2) were washed twice in Dulbecco's PBS (DPBS) and the cells were harvested by centrifugation at 1000 rpm after treatment with 10 mM EDTA-DPBS. The cells were washed 3 times in DPBS and the final cell pellet was resuspended in 3 volumes of ice cold HED buffer (20 mM HEPES (pH 7.67), 1 mM EGTA, 0.5 mM dithiothreitol, 1 mM phenylmethylsulphonyl fluoride (PMSF)). The cells were allowed to swell for 5 min on ice prior to homogenization for 30 sec. The homogenates were centrifuged at 40,000 rpm for 45 min at 4° C. The supernatant (S100) was removed and the pellet (P100) was resuspended in HEDG buffer (20 mM HEPES (pH 7.67), 1 mM EGTA, 0.5 mM dithiothreitol, 100 mM NaCl, 10% glycerol, 1 mM PMSF). Protein concentrations were determined using the Bradford assay (Bradford, M. M., 1976, Anal. Biochem. 72: 248-254).
Binding of peptide and/or peptide-coated PLGA particles to membrane (P100) and cytosolic (S100) fractions was assessed by detection of the dansyl moiety incorporated in the peptide. Costar ninety six well ELISA plates were coated with S100 and P100 fractions (100 μg/ml in 0.05 M NaHCO3) overnight at 4° C. The plates were blocked with 0.5% bovine serum albumin in DPBS for 1 h at room temperature and washed 3 times in 1% BSA-DPBS. […] After washing 3 times in 1% BSA-DPBS 100 μl of TMB substrate (3,3′,5′,5-tetramethylbenzidine; Microwell Peroxidase Substrate System (Kirkegaard and Perry Laboratories 50-76-00)) was added and the optical density was measured at 650 nm at various time intervals.
Binding of dansylated peptides to P100 fractions was assessed to determine if peptide binding was predictive of peptide-coated particle binding.

[3] = tested on: fixed Caco-2 cells; experiment: Inhibition of GST-peptide fusion binding to fixed Caco-2 cells by synthetic peptides; conditions: peptide from 100 μg/ml serially diluted; GST fusion 10 μg
Excerpt: Caco-2 cells were fixed, treated with phenylhydrazine and blocked as described above. […] GST-PAX2 binding was inhibited by ZElan032, ZElan033, and ZElan035.

[4] = tested on: P100 membrane fractions derived from Caco-2 cells; experiment: Dansylated peptide ELISA: relative binding of PAX2 and HAX42 peptides to P100 (ratio to ZElan021); conditions: PAX2 peptides, ratio to ZElan021 = 1.00
Method in brief: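 P100 membrane fraction from Caco-2 cells (normally 100 μg/ml) coated in carbonate buffer pH9.6, blocked with 2% Marvel/PBS, then incubated with dansylated peptides. Detection via anti-mouse HRP conjugate and TMB, OD read at 650nm; binding expressed relative to ZElan021.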

[5] = Isoelectric points of synthetic peptides; assay type: physicochemical
[6] = target: BSA (Bos taurus, UniProt P02769); experiment: Phage ELISA on BSA (background control protein); assay type: binding; conditions: Table 5
Sequence of BSA (P02769 25-607): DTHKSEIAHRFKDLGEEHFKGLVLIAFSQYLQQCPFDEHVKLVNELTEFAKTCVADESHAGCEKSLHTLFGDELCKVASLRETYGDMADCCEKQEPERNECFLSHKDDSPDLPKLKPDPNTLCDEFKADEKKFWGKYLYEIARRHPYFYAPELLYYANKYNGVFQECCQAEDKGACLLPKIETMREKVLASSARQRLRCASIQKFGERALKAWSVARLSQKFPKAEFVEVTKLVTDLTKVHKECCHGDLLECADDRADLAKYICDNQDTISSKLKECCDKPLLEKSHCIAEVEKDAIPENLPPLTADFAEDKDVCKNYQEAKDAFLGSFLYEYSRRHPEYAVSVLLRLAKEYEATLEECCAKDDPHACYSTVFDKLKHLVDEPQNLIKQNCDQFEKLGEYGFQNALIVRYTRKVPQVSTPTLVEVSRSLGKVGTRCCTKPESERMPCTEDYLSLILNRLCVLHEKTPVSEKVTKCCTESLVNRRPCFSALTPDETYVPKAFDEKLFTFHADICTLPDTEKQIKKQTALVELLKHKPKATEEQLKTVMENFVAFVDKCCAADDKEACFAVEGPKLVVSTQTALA
Method: (§1) 96 well plates were coated overnight with GIT receptor, BSA and, optionally, IDE (insulin degrading enzyme, an irrelevant His-fusion protein)or hTF. The plates were 5 blocked for one hour with 0.5% BSA-PBS. After clarification, the amplified phage were diluted 1:100 in […] plus 0.05% Tween 20 in PBS and added to the plates. Following incubation of the plates on a rotator for 1 to 2 hours, the plates were washed 5 times with 1% BSA plus 0.05% Tween 20 in PBS. Dilute anti-M13-HRP conjugate (anti-M13 antibody linked to horse radish peroxidase (HRP)) was added to all the wells and the plate was incubated for one hour on a rotator. After the plates were washed 5 times, as described above, TMB substrate was added to the wells. The plates were read at 650 nm absorbance.

[7] = target: T1, HPT1 (Homo sapiens, UniProt Q12864); experiment: Phage receptor ELISA on HPT1; assay type: binding; conditions: Table 5
T1 construct: 29-273; made in house
T1 sequence (Q12864 29-273): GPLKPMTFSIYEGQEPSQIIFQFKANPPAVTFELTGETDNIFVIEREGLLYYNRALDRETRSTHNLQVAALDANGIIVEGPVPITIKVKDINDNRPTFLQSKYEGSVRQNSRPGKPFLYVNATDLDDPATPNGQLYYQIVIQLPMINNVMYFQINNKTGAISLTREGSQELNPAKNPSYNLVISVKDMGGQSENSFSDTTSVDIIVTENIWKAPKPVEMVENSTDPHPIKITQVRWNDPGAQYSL
Method: as §1

[8] = tested on: polarized Caco-2 monolayers; experiment: Transport of GST-peptide fusions across polarized Caco-2 monolayers (anti-GST ELISA); assay type: in vitro ADME
Method: Transport and uptake of GST-peptide fusions and deletion derivatives across cultured polarized Caco-2 monolayers over 4 hours in HBSS buffer was examined using an anti-GST ELISA assay. In another experiment, transport and uptake of GST-peptide fusions and deletion derivatives across cultured polarized Caco-2 monolayers over 24 hours in serum-free medium (SFM) was examined using an anti-GST ELISA assay.
a) 4 h HBSS study: […] (TER) across the Caco-2 monolayers grown on snapwells (passage 33; 23 days old) was measured to confirm monolayer integrity before beginning the experiment. The medium was removed and the cells were washed once with bHBSS. bHBSS containing 100 μM chloroquine was added and the cells were incubated for 2 h at 37° C. The bHBSS+chloroquine was replaced with 0.5 ml bHBSS containing GST-peptide fusions (10 μg/ml) and the cells were incubated as before. […] At 4h, TER was measured, the apical medium was sampled and the apical reservoir was washed 6 times with HBSS. […]
b) 24 h SFM study: Transepithelial electrical flux (TER) across the Caco-2 monolayers grown on snapwells (passage 33; 23 days old) was measured to confirm monolayer integrity before beginning the experiment. […] After 24 hours, TER readings were taken, and samples from the basolateral and apical reservoirs were removed. […]

[9] = tested on: fixed Caco-2 or C2BBe1 cells; experiment: ELISA of GST fusion proteins on fixed Caco-2 or C2BBe1 cells; assay type: binding
Method: Fixed Caco-2, C2BBe1, and A431 cell plates were prepared by growing cells on tissue culture treated microtiter plates. When cells were confluent, plates were fixed with 10% formaldehyde, washed twice with PBS and stored with 0.5%BSA-PBS at −20° C. […] The standard ELISA procedure was followed at this point.
The standard ELISA procedure was modified as follows. GST proteins were diluted to an appropriate concentration in PBS containing lkBSA and 0.05% Tween20 (1%BPT), titered and incubated one hour at room temperature. Following five washes an anti-GST monoclonal antibody was added (Sigma, St. Louis Clone GST-2 diluted 1:10,000 in 1%BPT) and incubated one hour. After five more washes goat anti-mouse IgG2b-HRP was added (Southern Biotechnology Associates Inc., Birmingham, Ala., diluted 1:4000 in 1%BPT) and incubated one hour. After five washes plates were developed with TMB peroxidase substrate (Kirkegard and Perry, Gaithersburg, Md.). All data is presented with background binding subtracted.

[10] = tested on: fixed Caco-2 cells; experiment: Effect of thrombin cleavage on binding of GST-peptide fusions to fixed Caco-2 cells; conditions: thrombin 18 h at room temperature
Method: Binding of intact and thrombin-cleaved GST-peptide fusions to fixed Caco-2 cells was compared.
Thirty micrograms of each GST-peptide was treated with bovine thrombin (1 μ/ml; 0.4 NIH units; Sigma CN.T9681) for 18 h at room temperature in 2OmM Tris-HCl pH8.0, 150 mM NaCl, 2.5 mM CaCl2. Controls were similarly treated without addition of thrombin. Ten micrograms of each GST-peptide fusion was removed for PAGE analysis, and 10 μg of fusions were added in duplicate to the fixed Caco-2 cells before 5-fold serial dilutions (1% BPT diluent). The fusions were allowed to bind for 1 h at room temperature. Following 6 washes with 1% BPT, binding was assayed by ELISA.

[11] = tested on: ZElan024 (P31), ZElan018 (PAX2), ZElan021 (HAX42); experiment: Crossreactive binding of GST fusions to dansylated peptides; conditions: 0.5 μg/ml concentration used in competition assays

Compound: H-K(Dansyl)STPPSREAYSRPYSVDSDSDTNAKHSSHNRRLRTRSRPNG-NH2 [ZElan018]
binding of dansylated peptide to P100 compared to scrambled PAX2 control ([2]; repeat assay): indistinguishable from the scrambled PAX2 control
Binding value at 20 μg/ml ([4]; first 20 μg/ml column): −0.33
Binding value at 50 μg/ml ([4]; first 50 μg/ml column): 0.95
Binding value at 20 μg/ml ([4]; second 20 μg/ml column): 1.07
Binding value at 50 μg/ml ([4]; second 50 μg/ml column): 1.01
inhibition of GST-HAX42 binding [3]: inhibited

Compound: gst-SARDSGPAEDGSRAVRLNGVENANTRKSSRSNPRGRRHP [GST-P31]
flux relative to GST alone [8]: higher flux than GST alone
binding to fixed Caco-2 or C2BBe1 cells relative to GST control [9]: bound fixed Caco-2 or C2BBe1 cells
crossreactive binding to ZElan024 (P31) and ZElan018 (PAX2) [11]: no crossreactive binding

Further lines, with some results ahead:

Rel. Stab. ([1]; rank, 1 = most stable to SIF): 1
remaining at 1 min, 1 mg/ml ([1]; simulated intestinal fluid (pancreatin), pH 7.5, 10,000 fold diluted SIF, 37° C., read-out: Percent Remaining at: 1 m): 100%
remaining at 1 h, 1 mg/ml ([1]; simulated intestinal fluid (pancreatin), pH 7.5, 10,000 fold diluted SIF, 37° C., read-out: Percent Remaining at: 1 h): 98.3%
remaining at 3 h, 1 mg/ml ([1]; simulated intestinal fluid (pancreatin), pH 7.5, 10,000 fold diluted SIF, 37° C., read-out: Percent Remaining at: 3 h): 98.1%
remaining at 24 h, 1 mg/ml ([1]; simulated intestinal fluid (pancreatin), pH 7.5, 10,000 fold diluted SIF, 37° C., read-out: Percent Remaining at: 24 h): 94%
Compound: C[C@@H](O)[C@H](NC(=O)[C@@H](N)CCCCNS(=O)(=O)c1cccc2c(N(C)C)cccc12)C(=O)N[C@H](CCCNC(=N)N)C(=O)N[C@@H](CCCCN)C(=O)N[C@@H](CO)C(=O)N[C@@H](CO)C(=O)N[C@H](CCCNC(=N)N)C(=O)N[C@@H](CO)C(=O)N[C@@H](CC(N)=O)C(=O)N1CCC[C@H]1C(=O)N[C@H](CCCNC(=N)N)C(=O)NCC(=O)N[C@H](CCCNC(=N)N)C(=O)N[C@H](CCCNC(=N)N)C(=O)N[C@@H](Cc1c[nH]cn1)C(=O)N1CCC[C@H]1C(=O)NCC(N)=O [ZElan053, H2N—K(dns)TrKSSrSNPrGrrHPG—CONH2] (H-K(Dansyl)T[dR]KSS[dR]SNP[dR]G[dR][dR]HPG-NH2)
binding of dansylated peptide to P100 compared to scrambled PAX2 control ([2]; initial assay): binding at the highest dilution only
inhibition of GST-P31 binding [3]: inhibited

pI [5]: 9.62
OD, binding to BSA [6]: 0.071
OD, binding to HPT1 ([7]; phage panned on HPT-1): 0.32
HPT/BSA ([7]; ratio of HPT-1 to BSA binding): 5
Compound: SDHALGTNLRSDNAKEPGDYNCCGNGNSTGRKVFNRRRPSAIPT [HAX42]

binding to fixed Caco-2 or C2BBe1 cells relative to GST control [9]: bound fixed Caco-2 or C2BBe1 cells
Compound: gst-RYKHDIGCDAGVDKKSSSVRGGCGAHSSPPRAGRGPRGTMVSRL [GST-DCX8]
flux relative to GST alone [8]: higher flux than GST alone
effect of thrombin cleavage on detection of binding [10]: significantly reduced detection of binding
